Numbered stars: 1 amine (or outer) side, 2 acyl side, 3 side chain; on linkers, the order of the positions; unused ones are H or OH. Bridge positions count the residues as written; N and C are the ends. Peptide text beside a SMILES is read from it. * marks the point of attachment. X1 = O=C(O)CN1CCN(CC(=O)O)CCN(CC(=O)N2CCN(Cc3cc(C[*:1])cc(C[*:2])c3)CC2)CCN(CC(=O)O)CC1; Hexanoyl = CCCCCC(=O)*
Assay: Plasma stability
Format: in vitro ADME
Conditions: 10 µM, 37°C, UHPLC-QTOF MS with internal standard
Protocol: FAP-2287 was incubated in 50 µL of plasma with 3.8% sodium citrate as anticoagulant at a concentration of 10 µM. After 1, 2, 4, and 24 hours incubation at 37°C a suitable internal standard was added. FAP-2287 with plasma proteins were precipitated using 250 µL of a precipitation agent consisting of 1% trifluoroacetic acid in acetonitrile. Precipitation was carried out at room temperature for 30 minutes. After centrifugation at 18,200 relative centrifugal force (rcf) for 5 minutes, 100 µL of the supernatant was mixed with 100 µL of 1% formic acid.
A nonincubated plasma sample spiked with 10 µM sample concentration was prepared in the same way and was used as the reference. A pure plasma sample was incubated for 24 hours as a blank sample. A further pure plasma sample was incubated for 24 hours, processed as described above and spiked directly before analysis to determine the recovery. The samples were analyzed using an Agilent 1290 UHPLC system coupled to an Agilent 6530 QTOF mass spectrometer.
For the quantitative data analysis, the Agilent Quantitative Analysis B.08.00 software (RRID:SCR_015040) was used. The ion currents of the triply charged proton adducts of the compounds were extracted with a mass window of ±50 parts per million and the chromatographic peak was integrated. The concentration of the compound was determined by external matrix calibration with internal standard using 6 calibration samples (1, 2.5, 5, 7.5, 10, and 12.5 µM). A quadratic regression was performed. Carryover was determined by analyzing the blank sample directly after the highest calibration sample and comparing the determined peak areas. Recovery was calculated as the ratio between the spiked concentration of the recovery sample and the concentration calculated from the peak area of this sample.

CCCCCC(=O)N[C@H]1CSCc2cc(cc(CN3CCN(C(=O)CN4CCN(CC(=O)O)CCN(CC(=O)O)CCN(CC(=O)O)CC4)CC3)c2)CSC[C@@H](C(=O)N[C@@H](CC(=O)O)C(N)=O)NC(=O)[C@H](Cc2ccccc2)NC(=O)[C@H](CCC(N)=O)NC(=O)[C@H]([C@@H](C)O)NC(=O)[C@@H]2CCCN2C(=O)[C@@H]2CCCN2C1=O [FAP-2287] (Hexanoyl-CPPTQFCD-NH2; linker 1-7 via X1)
Plasma Stability (24 h) Human Plasma (human plasma with 3.8% sodium citrate): > 80% | Plasma Stability (24 h) Mouse Plasma (mouse plasma with 3.8% sodium citrate): > 80%

From publication PMC10317891, “Fibroblast activation protein targeted radiotherapy induces an immunogenic tumor microenvironment and enhances the efficacy of PD-1 immune checkpoint inhibition” (European Journal of Nuclear Medicine and Molecular Imaging, 2023)
